According to US12551523B2, “HIF-1 activator” (NUTRITION ACT CO., LTD., priority 2021, dated 2026):

test system: K562 cells; assay: GYPA gene expression in K562 cells (quantitative real-time PCR); format: cell-based, human; details: olive leaf components alone or in combination
Experimental: K562 cells (Riken Cell Bank) were seeded in a 6-well plate using RPMI 1640 Medium (Gibco Waltham, MA, USA) containing 10% FBS and 1% penicillin/streptomycin solution added to a cell concentration of 2×10^4 cell/ml, and the cells were cultured in 5% CO2 at 37° C., 95% humidification. On the following day, the medium was replaced with a mixed solution of oleuropein (OP) and oleuroside (OS), and reaction was conducted for 6 days. The mixing proportions were as follows: (a) combinations of 35.36 μM OP and different concentrations of OS (1.18, 3.54, 5.23, 7.10, 17.68, 23.57, 35.36 and 43.85 μM), and (b) combinations of 5.23 μM OS and different concentrations of OP (0.52, 2.62, 5.23, 10.46, 20.92, 35.36, 41.84 and 52.30 μM). The medium was replaced every 3 days.
After 6 days of reaction, the medium was removed from the cells, Isogen (Nippon Gene Co., Ltd.) was added for sonication, and the total RNA was extracted according to the manufacturer's protocol. The RNA concentration was measured using a NanoDrop 2000 spectrometer (Thermo Scientific, USA). For cDNA synthesis, 4 μl of SuperScript IV VILO Master Mix (Invitrogen) and 16 μl of total RNA solution (final RNA concentration: 10 ng/20 μl) were mixed in a PCR tube, and a MiniAmp Plus thermal cycler (Applied Biosystems) was used for reverse transcription. The thermal cycle was 10 minutes at 25° C., 10 minutes at 50° C., 5 minutes at 85° C. and 1 minute at 4° C. Quantitative real-time PCR was carried out for gene expression analysis. The Taqman primer and probe set used for the target gene expression analysis was the following: GYPA (Hs011068079_s1). ACTB (Hs03023880 g1 was used as the endogenous standard. For Taqman real-time PCR amplification reaction and gene expression level quantitation, 10 μL of TaqMan Gene Expression Master Mix (Applied Biosystems), 1 μL of each primer and probe set and 9 μL of cDNA (final cDNA concentration: […]) were mixed, and an AB 7500 Fast Real-Time PCR system (Applied Biosystems) was used. The thermal cycle was 2 minutes at 50° C., 10 minutes at 95° C., 15 seconds at 95° C. (50 cycles) and 1 minute at 60° C. The gene expression levels were calculated by the ΔΔCt method.
Two types of olive leaf extract with different content ratios of oleuropein and oleuroside were used to treat K562 cells, and the GYPA gene expression levels were measured by real-time PCR, as an erythroid differentiation marker. The test substances used were olive leaf extract A: 120 μg/mL (1.89 μg oleuroside: 15.44 μg oleuropein) (“extract A”, corresponding to the invention), and olive leaf extract B: 120 μg/mL (1.56 μg oleuroside: 40.26 μg oleuropein) (“extract B”).
The hydroxytyrosol, oleuropein, oleuroside, apigenin, apigenin-7-glucoside, apigenin-7-O-rutinoside, luteolin and luteolin-7-O-glucoside present in olive leaves were used either alone or in combination to measure the GYPA gene expression effect by the same method as for the synergistic effect with OP/OS at 10:1 to 1:10 using GYPA as the marker. GYPA gene expression increased only with the combination of oleuroside and oleuropein.

Row | Structure (SMILES) | GYPA expression increase
1 | O=c1cc(-c2ccc(O)cc2)oc2cc(O[C@@H]3O[C@H](CO)[C@@H](O)[C@H](O)[C@H]3O)cc(O)c12 [A7G, Apigenin-7-O-glucoside] | No
2 | O=c1cc(-c2ccc(O)cc2)oc2cc(O)cc(O)c12 [A, Apigenin] | No
3 | O=c1cc(-c2ccc(O)c(O)c2)oc2cc(O)cc(O)c12 [L, Luteolin] | No
4 | C[C@@H]1O[C@@H](OC[C@H]2O[C@@H](Oc3cc(O)c4c(=O)cc(-c5ccc(O)cc5)oc4c3)[C@H](O)[C@@H](O)[C@@H]2O)[C@H](O)[C@H](O)[C@H]1O [A7R, Apigenin-7-O-rutinoside] | No
5 | C/C=C1/[C@H](O[C@@H]2O[C@H](CO)[C@@H](O)[C@H](O)[C@H]2O)OC=C(C(=O)OC)[C@H]1CC(=O)OCCc1ccc(O)c(O)c1 [OP, Oleuropein] | No
6 | O=c1cc(-c2ccc(O)c(O)c2)oc2cc(O[C@@H]3O[C@H](CO)[C@@H](O)[C@H](O)[C@H]3O)cc(O)c12 [L7G, Luteolin-7-O-glucoside] | No

same assay, conditions: olive leaf components alone or in combination, listed as oleuropein

Row | Structure (SMILES) | GYPA expression increase
7 | C/C=C1/[C@H](O[C@@H]2O[C@H](CO)[C@@H](O)[C@H](O)[C@H]2O)OC=C(C(=O)OC)[C@H]1CC(=O)OCCc1ccc(O)c(O)c1 [OP, Oleuropein] | No effect
